Read-outs that look alike come from different tables or passages of the source.
How the values were obtained:
[1] = test system: FoxO3a; experiment: FoxO3a inhibition: GFP-FoxO3a nuclear to cytoplasmic translocation reporter assay; format: cell-based; conditions: U2OS GFP-FoxO3a H212R cells, serum starved overnight, compound 30 minutes, ratio of nuclear to cytosolic GFP intensity, DMSO control 0%, read-out: FoxO AC50
Method: (§1) Phosphorylation of AKT on S473 and FoxO3a nuclear to cytoplasmic translocation were used as readouts of PI3K/Akt/mTOR pathway activation downstream of growth factor signaling.
(§2) Reporter cell line. U2OS GFP-FoxO3a H212R reporter cell line was established by transducing U2OS cells with the retroviral plasmid pLEGFP-C1 containing FoxO3a H212R transgene and selecting for G418 resistant clones.
(§3) Reporter assay. U2OS GFP-FoxO3a H212R cells were plated in 384-well plates at 4000 cells per well in 30 microliters of McCoy's 5 A medium containing 10% FBS. On day 1 the cells were washed with serum free medium and serum starved overnight. On day 2 the cells were treated with different doses of the compounds for 30 minutes, fixed with 4% Paraformaldehyde for 1 hour and stained with Phospho-AKT (Ser473) antibody (Cell Signaling Technology, catalog #4060) overnight at 4 degrees Celsius. After nuclei staining with Hoechst 33342 (Life Technologies, catalog # H3570) the plates were imaged with InCell 2000 (GE Healthcare Bio-Sciences). FoxO3a inhibition activity is calculated as the ratio of nuclear to cytosolic GFP intensity in percent. AKT activation is measured as the total cellular intensity of Phospho-AKT antibody staining in percent. DMSO control is set as 0% activity.

[2] = test system: AKT; experiment: AKT activation: Phospho-AKT (Ser473) antibody staining in reporter cells; format: cell-based; conditions: U2OS GFP-FoxO3a H212R cells, serum starved overnight, compound 30 minutes, total cellular intensity of Phospho-AKT (Ser473) staining, DMSO control 0%
Method: as §1, §2, §3

| Structure (SMILES) | AC50 ([1]; Homo sapiens, U2OS, 0.5 h) | AC50 ([2]; Homo sapiens, U2OS, 0.5 h) | AC50 [1] | AC50 [2] |
| --- | --- | --- | --- | --- |
| Cc1cc(C(N)=O)nn1-c1ccc2c(c1)c(C1=CCN(C)CC1)cn2Cc1ccc(-c2ccc(S(C)(=O)=O)cc2)cc1 [Example 19-2, 5-methyl-1-(3-(1-methyl-1,2,3,6-tetrahydropyridin-4-yl)-1-((4′-(methylsulfonyl)-[1,1′-biphenyl]-4-yl)methyl)-1H-indol-5-yl)-1H-pyrazole-3-carboxamide] | 0.346 µM | 1.02 µM | – | – |
| Cc1cc(C(N)=O)nn1-c1ccc2c(c1)c(C1=CCNCC1)cn2Cc1ccc(-c2ccc(S(C)(=O)=O)cc2)cc1 [Example 21, 5-methyl-1-(1-((4′-(methylsulfonyl)-[1,1′-biphenyl]-4-yl)methyl)-3-(1,2,3,6-tetrahydropyridin-4-yl)-1H-indol-5-yl)-1H-pyrazole-3-carboxamide] | 0.598 µM | 1.65 µM | – | – |
| Cc1cc(C(N)=O)nn1-c1ccc2c(ccn2Cc2ccc(-c3ccc(F)cc3)cc2)c1 [Example 1-27, 1-(1-((4′-fluoro-[1,1′-biphenyl]-4-yl)methyl)-1H-indol-5-yl)-5-methyl-1H-pyrazole-3-carboxamide] | 0.229 µM | > 10 µM | – | – |
| Cc1cc(C(N)=O)nn1-c1ccc2c(ccn2Cc2ccc(C3=CCN(C)CC3)cc2)c1 [Example 1-1, 5-methyl-1-(1-(4-(1-methyl-1,2,3,6-tetrahydropyridin-4-yl)benzyl)-1H-indol-5-yl)-1H-pyrazole-3-carboxamide] | 0.053 µM | 0.138 µM | – | – |
| Cc1cc(C(N)=O)nn1-c1ccc2c(ccn2Cc2ccc(-c3ccc4nccn4c3)cc2)c1 [Example 1-7, 1-(1-(4-(imidazo[1,2-a]pyridin-6-yl)benzyl)-1H-indol-5-yl)-5-methyl-1H-pyrazole-3-carboxamide] | 0.194 µM | 0.68 µM | – | – |
| Cc1cc(C(N)=O)nn1-c1ccc2c(ccn2Cc2ccc(N3CC4CN(C)CC4C3)cc2)c1 (centres unmarked) [Example 11-3, 5-methyl-1-(1-(4-(5-methylhexahydropyrrolo[3,4-c]pyrrol-2(1H)-yl)benzyl)-1H-indol-5-yl)-1H-pyrazole-3-carboxamide] | 1.16 µM | 2.97 µM | – | – |
| Cc1cc(C(N)=O)nn1-c1ccc2c(ccn2Cc2ccc(-c3ccc(C(=O)NCCN4CCOCC4)cc3)cc2)c1 [Example 1-38, 5-methyl-1-(1-((4′-((2-morpholinoethyl)carbamoyl)-[1,1′-biphenyl]-4-yl)methyl)-1H-indol-5-yl)-1H-pyrazole-3-carboxamide] | 0.078 µM | 0.24 µM | – | – |
| Cc1cc(C(N)=O)nn1-c1ccc2c(ccn2Cc2ccc(NC3CCN(C)C3)cc2)c1 (single isomer, unassigned) [Example 37-1, 5-Methyl-1-(1-(4-((1-methylpyrrolidin-3-yl)amino)benzyl)-1H-indol-5-yl)-1H-pyrazole-3-carboxamide] | 0.724 µM | 4.79 µM | – | – |
| Cc1cc(C(N)=O)nn1-c1ccc2c(ccn2Cc2ccc(NC3CCN(C)C3)cc2)c1 (single isomer, unassigned) [Example 37-2, 5-methyl-1-(1-(4-((1-methylpyrrolidin-3-yl)amino)benzyl)-1H-indol-5-yl)-1H-pyrazole-3-carboxamide] | – | – | 0.928 µM | 4.08 µM |
| Cc1cc(C(N)=O)nn1-c1ccc2c(ccn2Cc2ccc(-c3ccc(S(C)(=O)=O)cc3)cc2)c1 [Example 1-6, 5-methyl-1-(1-((4′-(methylsulfonyl)-[1,1′-biphenyl]-4-yl)methyl)-1H-indol-5-yl)-1H-pyrazole-3-carboxamide] | 0.101 µM | 0.25 µM | – | – |
| Cc1cc(C(N)=O)nn1-c1ccc2c(ccn2Cc2ccc(C3=CCN(S(C)(=O)=O)CC3)cc2)c1 [Example 4, 5-methyl-1-(1-(4-(1-(methylsulfonyl)-1,2,3,6-tetrahydropyridin-4-yl)benzyl)-1H-indol-5-yl)-1H-pyrazole-3-carboxamide] | 0.109 µM | 0.306 µM | – | – |
| Cc1cc(C(N)=O)nn1-c1ccc2c(ccn2Cc2ccc([C@H]3C[C@H]4CNC[C@H]4C3)cc2)c1 [Example 39, 5-methyl-1-(1-(4-((3aR,5r,6aS)-octahydrocyclopenta[c]pyrrol-5-yl)benzyl)-1H-indol-5-yl)-1H-pyrazole-3-carboxamide] | 0.175 µM | 0.907 µM | – | – |
| Cc1cc(C(N)=O)nn1-c1ccc2c(c1)c(C1CCOCC1)cn2Cc1ccc(-c2ccc(S(C)(=O)=O)cc2)cc1 [Example 20, 5-methyl-1-(1-((4′-(methylsulfonyl)-[1,1′-biphenyl]-4-yl)methyl)-3-(tetrahydro-2H-pyran-4-yl)-1H-indol-5-yl)-1H-pyrazole-3-carboxamide] | 0.068 µM | 0.186 µM | – | – |
| Cc1cc(C(N)=O)nn1-c1ccc2c(ccn2Cc2ccc(C3CCCN(C)CC3)cc2)c1 (single isomer, unassigned) [Example 29-2, 5-methyl-1-(1-(4-(1-methylazepan-4-yl)benzyl)-1H-indol-5-yl)-1H-pyrazole-3-carboxamide] | – | – | 0.818 µM | 2.1 µM |
| Cc1cc(C(N)=O)nn1-c1ccc2c(ccn2Cc2ccc(-c3ccc4cc[nH]c4c3)cc2)c1 [Example 1-21, 1-(1-(4-(1H-indol-6-yl)benzyl)-1H-indol-5-yl)-5-methyl-1H-pyrazole-3-carboxamide] | 0.42 µM | 2.97 µM | – | – |
| Cc1cc(C(N)=O)nn1-c1ccc2c(ccn2Cc2ccc(CC3CN(C)C3)cc2)c1 [Example 32, 5-methyl-1-(1-(4-((1-methylazetidin-3-yl)methyl)benzyl)-1H-indol-5-yl)-1H-pyrazole-3-carboxamide] | 1.04 µM | 4.36 µM | – | – |
| COc1ccc(-c2ccc(Cn3ccc4cc(-n5nc(C(N)=O)cc5C)ccc43)cc2)cc1 [Example 1-30, 1-(1-((4′-methoxy-[1,1′-biphenyl]-4-yl)methyl)-1H-indol-5-yl)-5-methyl-1H-pyrazole-3-carboxamide] | 0.216 µM | 0.952 µM | – | – |
| Cc1cc(C(N)=O)nn1-c1ccc2c(ccn2Cc2ccc(C3CCN(C)C3)cc2)c1 (racemic) [Example 2-1, rac-5-methyl-1-(1-(4-(1-methylpyrrolidin-3-yl)benzyl)-1H-indol-5-yl)-1H-pyrazole-3-carboxamide] | 0.733 µM | 2.51 µM | – | – |
| Cc1cc(C(N)=O)nn1-c1ccc2c(ccn2Cc2ccc(-c3ccc(C#N)cc3)cc2)c1 [Example 1-5, 1-(1-((4′-cyano-[1,1′-biphenyl]-4-yl)methyl)-1H-indol-5-yl)-5-methyl-1H-pyrazole-3-carboxamide] | 0.285 µM | > 10 µM | – | – |
| Cc1cc(C(N)=O)nn1-c1ccc2c(ccn2Cc2ccc(C3=CCN4CCCC3C4)cc2)c1 (single isomer, unassigned) [Example 14, 1-(1-(4-(1-azabicyclo[3.3.1]non-3-en-4-yl)benzyl)-1H-indol-5-yl)-5-methyl-1H-pyrazole-3-carboxamide] | – | – | 0.652 µM | 2.1 µM |
| Cc1cc(C(N)=O)nn1-c1ccc2c(ccn2Cc2ccc(C3=CCCN(C)C3)cc2)c1 [Example 1-8, 5-methyl-1-(1-(4-(1-methyl-1,2,5,6-tetrahydropyridin-3-yl)benzyl)-1H-indol-5-yl)-1H-pyrazole-3-carboxamide] | 0.517 µM | > 10 µM | – | – |
| Cc1cc(C(N)=O)nn1-c1ccc2c(ccn2Cc2ccc(C3=CCN(C)C(C)(C)C3)cc2)c1 [Example 15-1, 5-methyl-1-(1-(4-(1,2,2-trimethyl-1,2,3,6-tetrahydropyridin-4-yl)benzyl)-1H-indol-5-yl)-1H-pyrazole-3-carboxamide] | 0.242 µM | 0.391 µM | – | – |
| Cc1cc(C(N)=O)nn1-c1ccc2c(ccn2Cc2ccc(C3=CCN(C(=O)CCCN(C)C)CC3)cc2)c1 [Example 10] | 0.189 µM | 0.512 µM | – | – |
| Cc1cc(C(N)=O)nn1-c1ccc2c(c1)c(CCCO)cn2Cc1ccc([C@@H]2C[C@@H]3CN(C)C[C@@H]3C2)cc1 [Example 38, 1-(3-(3-hydroxypropyl)-1-(4-((3aR,5r,6aS)-2-methyloctahydrocyclopenta[c]pyrrol-5-yl)benzyl)-1H-indol-5-yl)-5-methyl-1H-pyrazole-3-carboxamide] | 0.081 µM | – | – | – |
| Cc1cc(C(N)=O)nn1-c1ccc2c(ccn2Cc2ccc(C3CCN(CCCN)CC3)cc2)c1 [Example 8, 1-(1-(4-(1-(3-aminopropyl)piperidin-4-yl)benzyl)-1H-indol-5-yl)-5-methyl-1H-pyrazole-3-carboxamide] | 0.466 µM | – | – | – |
| CC(=O)NCCCN1CCC(c2ccc(Cn3ccc4cc(-n5nc(C(N)=O)cc5C)ccc43)cc2)CC1 [Example 9, 1-(1-(4-(1-(3-acetamidopropyl)piperidin-4-yl)benzyl)-1H-indol-5-yl)-5-methyl-1H-pyrazole-3-carboxamide] | 0.301 µM | – | – | – |
| Cc1cc(C(N)=O)nn1-c1ccc2c(ccn2Cc2ccc(-c3ccncc3)cc2)c1 [Example 1-2, 5-methyl-1-(1-(4-(pyridin-4-yl)benzyl)-1H-indol-5-yl)-1H-pyrazole-3-carboxamide] | 0.102 µM | – | – | – |

Reference: patent US10654828B2 (NOVARTIS AG, priority 2017, dated 2020)
